Columns and labels:
Format in all cases: binding
Conditions in all cases: Compound Concentration 10 µM
[1] = target: T1, panel of 442 kinases (Homo sapiens, UniProt P07949, V804M)
T1 construct: purchased KINOMEscan
Description: (§1) We assessed the selectivity of members of this scaffold using the KINOMEscan methodology across a near comprehensive panel of 442 kinases [[18,27]].

[2] = target: T2, panel of 442 kinases (Plasmodium falciparum, UniProt P61075)
T2 construct: purchased KINOMEscan
Description: as §1

[3] = target: T3, panel of 442 kinases (Homo sapiens, UniProt P51617)
T3 construct: purchased KINOMEscan
T3 sequence (P51617 whole entry): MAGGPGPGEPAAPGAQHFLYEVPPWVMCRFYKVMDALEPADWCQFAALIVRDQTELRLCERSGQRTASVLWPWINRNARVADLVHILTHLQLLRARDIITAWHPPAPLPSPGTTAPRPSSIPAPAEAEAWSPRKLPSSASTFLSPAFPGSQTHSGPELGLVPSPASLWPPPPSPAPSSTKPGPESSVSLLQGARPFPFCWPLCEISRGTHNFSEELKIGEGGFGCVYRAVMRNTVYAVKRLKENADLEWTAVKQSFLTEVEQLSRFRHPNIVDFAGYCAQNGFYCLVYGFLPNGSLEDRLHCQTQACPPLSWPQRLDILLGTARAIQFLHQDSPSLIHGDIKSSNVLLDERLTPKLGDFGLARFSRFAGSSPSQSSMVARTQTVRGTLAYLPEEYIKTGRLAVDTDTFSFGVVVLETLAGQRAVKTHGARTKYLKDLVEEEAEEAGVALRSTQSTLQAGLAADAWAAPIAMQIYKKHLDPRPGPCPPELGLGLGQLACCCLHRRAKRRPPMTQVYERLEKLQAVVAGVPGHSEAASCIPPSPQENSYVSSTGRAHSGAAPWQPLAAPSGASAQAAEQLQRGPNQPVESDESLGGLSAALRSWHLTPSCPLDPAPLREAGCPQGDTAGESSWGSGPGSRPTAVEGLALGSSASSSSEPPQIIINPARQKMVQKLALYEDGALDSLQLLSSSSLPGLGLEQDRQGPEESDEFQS
Description: as §1

T2 sequence (P61075 whole entry): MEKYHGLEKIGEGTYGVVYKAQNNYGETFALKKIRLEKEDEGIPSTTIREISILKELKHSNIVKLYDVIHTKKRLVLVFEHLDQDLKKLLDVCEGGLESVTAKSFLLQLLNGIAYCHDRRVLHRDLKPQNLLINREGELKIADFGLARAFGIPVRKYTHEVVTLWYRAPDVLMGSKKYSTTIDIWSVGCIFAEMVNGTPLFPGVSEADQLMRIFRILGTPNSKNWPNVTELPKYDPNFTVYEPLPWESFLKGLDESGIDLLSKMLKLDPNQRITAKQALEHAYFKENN
T1 sequence (P07949 29-1114 V804M): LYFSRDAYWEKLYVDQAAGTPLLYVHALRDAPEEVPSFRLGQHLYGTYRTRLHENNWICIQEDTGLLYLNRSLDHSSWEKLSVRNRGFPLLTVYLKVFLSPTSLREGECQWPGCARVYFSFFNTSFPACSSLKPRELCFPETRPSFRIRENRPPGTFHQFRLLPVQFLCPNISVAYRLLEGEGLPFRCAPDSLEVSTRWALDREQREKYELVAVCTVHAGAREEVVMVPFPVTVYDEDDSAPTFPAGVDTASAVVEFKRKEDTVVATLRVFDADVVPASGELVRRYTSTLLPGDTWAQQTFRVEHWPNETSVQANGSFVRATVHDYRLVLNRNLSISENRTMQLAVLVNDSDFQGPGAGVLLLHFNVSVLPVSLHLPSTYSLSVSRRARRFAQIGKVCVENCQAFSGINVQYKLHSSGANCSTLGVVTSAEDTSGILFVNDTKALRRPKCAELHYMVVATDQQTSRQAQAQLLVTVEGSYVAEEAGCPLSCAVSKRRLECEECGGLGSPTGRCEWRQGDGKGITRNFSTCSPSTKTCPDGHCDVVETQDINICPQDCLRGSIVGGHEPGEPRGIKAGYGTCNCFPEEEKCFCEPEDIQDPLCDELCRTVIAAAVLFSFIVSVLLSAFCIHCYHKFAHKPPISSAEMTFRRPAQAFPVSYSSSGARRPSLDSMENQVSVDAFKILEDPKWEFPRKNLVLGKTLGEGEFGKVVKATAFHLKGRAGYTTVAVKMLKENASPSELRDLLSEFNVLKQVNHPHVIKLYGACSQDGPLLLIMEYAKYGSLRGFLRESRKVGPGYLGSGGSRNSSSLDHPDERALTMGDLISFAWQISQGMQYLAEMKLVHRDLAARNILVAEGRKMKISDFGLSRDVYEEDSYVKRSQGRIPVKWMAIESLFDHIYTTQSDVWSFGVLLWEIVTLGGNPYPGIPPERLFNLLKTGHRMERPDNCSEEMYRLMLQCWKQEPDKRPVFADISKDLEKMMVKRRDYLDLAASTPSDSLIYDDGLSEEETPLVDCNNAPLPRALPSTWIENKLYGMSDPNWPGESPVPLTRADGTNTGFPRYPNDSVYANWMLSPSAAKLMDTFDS

Row | SMILES | KINOMEscan: RET(V804M) [1] | KINOMEscan: PFPK5(P.falciparum) [2] | KINOMEscan: IRAK1 [3]
1 | COc1cc(C(=O)N2CCC(N3CCN(C)CC3)CC2)ccc1Nc1ncc2c(n1)N(C)c1ccccc1C(=O)N2C [15 (LRRK2-IN-1)] | 80 | 100 | 100
2 | COc1cc(C(=O)N2CCC(N3CCN(C)CC3)CC2)ccc1Nc1ncc2c(n1)N1CCc3cccc(c31)C(=O)N2C [Compound 24] | – | 92 | 95
3 | COc1cc(C(=O)N2CCC(N3CCN(C)CC3)CC2)ccc1Nc1ncc2c(n1)N(C1CCCC1)c1ccccc1C(=O)N2C [Compound 25, 11-cyclopentyl-2-((2-methoxy-4-(4-(4-methylpiperazin-1-yl)piperidine-1-carbonyl)phenyl)amino)-5-methyl-5H-benzo[e]pyrimido[5,4-b][1,4]diazepin-6(11H)-one] | 100 | 85 | 89
4 | CCOc1cc(C(=O)N2CCC(N3CCN(C)CC3)CC2)ccc1Nc1ncc2c(n1)N(C1CCCC1)c1ccccc1C(=O)N2C [Compound 26] | 100 | 100 | 100
